The target in one data set is Adenylate cyclase type 1 (Homo sapiens, UniProt Q08828).
In data set [1] the target is T1, Adenylate cyclase type 8 (Homo sapiens, UniProt P40145). Nature of the data set: Inhibition of Ca2+/ CAM stimulated human AC8 activity expressed in AC3 and AC6-knockout HEK293 cells assessed as A23187 stimulated cAMP accumulation incubated for 30 mins followed by […] in presence of IBMX for 1 hr by HTRF assay. The data set is classed as cell-based. For orientation: cAMP levels reflect the balance of adenylyl cyclase and phosphodiesterase activity.

Data set [2] deals with T1, Adenylate cyclase type 8. The data set can be described thus: Inhibition of Ca2+/ CAM stimulated human AC8 activity expressed in AC3 and AC6-knockout HEK293 cells assessed as A23187 stimulated cAMP accumulation incubated for 30 mins followed by […] in presence of IBMX for 1 hr by HTRF assay relative to control. The data set is classed as cell-based. The note with it: time 90.0 min. The arrangement: concentration or dose not given beside the values.

In data set [3] the target is Vascular endothelial growth factor receptor 2 (Homo sapiens) (UniProt P35968). Nature of the data set: Inhibition of human recombinant VEGFR2 assessed as inhibition of phosphorylation activity at 10 uM using 33P-labeleled peptide substrate by radiometric scintillation counting assay relative to control.
Data set [4] addresses T1, Adenylate cyclase type 8. Nature of the data set: Inhibition of Ca2+/ CAM stimulated human AC8 expressed in AC3 and AC6-knockout HEK293 cells assessed as A23187 stimulated cAMP accumulation at 10 uM incubated for 30 mins followed by […] in presence of IBMX for 1 hr by HTRF assay relative to control. The data set is classed as cell-based. The note with it: time 90.0 min.

Data set [5] can be described thus: Thermodynamic solubility of the compound in PBS at pH 7.4. The settings on record: read-out: Therm_solubility. The data set is classed as physicochemical.
The target in data set [6] is Insulin receptor (Homo sapiens) (UniProt P06213). Nature of the data set: Inhibition of human recombinant IRK assessed as inhibition of phosphorylation activity at 10 uM using 33P-labeleled peptide substrate by radiometric scintillation counting assay relative to control.
The target of data set [7] is 5-hydroxytryptamine receptor 2B (Homo sapiens, UniProt P41595). Nature of the data set: Binding affinity to 5-HT2B receptor (unknown origin) assessed as displacement of radioligand at 10 uM by radioligand binding assay.
The next data set concerns HEK293. The data set can be described thus: Cytotoxicity against HEK293 cells assessed as reduction in cell viability at 30 uM incubated for 1 hr by cell titer glo assay. The data set is classed as toxicity, cell-based. The note with it: human, hek293, 1 h. For orientation: ATP-based viability assays read luminescence as a measure of living cells.
Data set [8] deals with Voltage-gated inwardly rectifying potassium channel KCNH2 (Homo sapiens, UniProt Q12809). The data set can be described thus: Displacement of [3H]astemizole from human ERG expressed in HEK293 cell membrane at 10 uM by Radiometric displacement assay relative to control. The data set is classed as toxicity, cell membranes. The note with it: hek293, 10 µM. In general terms: Displacement assays read how much labelled ligand stays bound in the presence of the test substance.

The test system of another data set is Mus musculus. The data set can be described thus: Antiallodynic activity against CFA-induced C57BL/6N mouse inflammatory pain model assessed as inhibition of inflammatory mechanical allodynia at 5.6 mg/kg, ip measured over 2 hrs post treatment by von Frey test. The data set is classed as functional, organism-based.

Usually IC50 stands for the concentration that inhibits the measured activity by half. In general, inhibition refers to the percentage by which the read-out fell short of the control. By Ki is commonly meant the dissociation constant of the complex between target and ligand, obtained from inhibition or displacement.

The structures appear in SMILES notation. Converted amounts (≈) assume the structure as drawn. The source made the active and inactive calls. The rule behind the calls is not given here.

Sequence of 5-hydroxytryptamine receptor 2B (P41595 whole entry): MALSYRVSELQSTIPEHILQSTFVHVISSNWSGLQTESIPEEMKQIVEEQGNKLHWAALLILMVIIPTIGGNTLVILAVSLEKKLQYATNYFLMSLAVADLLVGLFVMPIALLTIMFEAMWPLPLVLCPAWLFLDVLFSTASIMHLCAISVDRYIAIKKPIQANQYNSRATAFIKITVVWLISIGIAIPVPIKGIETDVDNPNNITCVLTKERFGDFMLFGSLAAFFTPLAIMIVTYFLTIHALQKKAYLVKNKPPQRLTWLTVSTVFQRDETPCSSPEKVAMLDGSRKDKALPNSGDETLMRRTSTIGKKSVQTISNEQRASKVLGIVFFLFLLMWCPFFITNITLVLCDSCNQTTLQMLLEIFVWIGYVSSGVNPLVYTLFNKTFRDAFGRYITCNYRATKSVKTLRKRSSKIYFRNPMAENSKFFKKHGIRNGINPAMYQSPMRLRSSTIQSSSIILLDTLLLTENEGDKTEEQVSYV
T1 sequence (P40145 whole entry): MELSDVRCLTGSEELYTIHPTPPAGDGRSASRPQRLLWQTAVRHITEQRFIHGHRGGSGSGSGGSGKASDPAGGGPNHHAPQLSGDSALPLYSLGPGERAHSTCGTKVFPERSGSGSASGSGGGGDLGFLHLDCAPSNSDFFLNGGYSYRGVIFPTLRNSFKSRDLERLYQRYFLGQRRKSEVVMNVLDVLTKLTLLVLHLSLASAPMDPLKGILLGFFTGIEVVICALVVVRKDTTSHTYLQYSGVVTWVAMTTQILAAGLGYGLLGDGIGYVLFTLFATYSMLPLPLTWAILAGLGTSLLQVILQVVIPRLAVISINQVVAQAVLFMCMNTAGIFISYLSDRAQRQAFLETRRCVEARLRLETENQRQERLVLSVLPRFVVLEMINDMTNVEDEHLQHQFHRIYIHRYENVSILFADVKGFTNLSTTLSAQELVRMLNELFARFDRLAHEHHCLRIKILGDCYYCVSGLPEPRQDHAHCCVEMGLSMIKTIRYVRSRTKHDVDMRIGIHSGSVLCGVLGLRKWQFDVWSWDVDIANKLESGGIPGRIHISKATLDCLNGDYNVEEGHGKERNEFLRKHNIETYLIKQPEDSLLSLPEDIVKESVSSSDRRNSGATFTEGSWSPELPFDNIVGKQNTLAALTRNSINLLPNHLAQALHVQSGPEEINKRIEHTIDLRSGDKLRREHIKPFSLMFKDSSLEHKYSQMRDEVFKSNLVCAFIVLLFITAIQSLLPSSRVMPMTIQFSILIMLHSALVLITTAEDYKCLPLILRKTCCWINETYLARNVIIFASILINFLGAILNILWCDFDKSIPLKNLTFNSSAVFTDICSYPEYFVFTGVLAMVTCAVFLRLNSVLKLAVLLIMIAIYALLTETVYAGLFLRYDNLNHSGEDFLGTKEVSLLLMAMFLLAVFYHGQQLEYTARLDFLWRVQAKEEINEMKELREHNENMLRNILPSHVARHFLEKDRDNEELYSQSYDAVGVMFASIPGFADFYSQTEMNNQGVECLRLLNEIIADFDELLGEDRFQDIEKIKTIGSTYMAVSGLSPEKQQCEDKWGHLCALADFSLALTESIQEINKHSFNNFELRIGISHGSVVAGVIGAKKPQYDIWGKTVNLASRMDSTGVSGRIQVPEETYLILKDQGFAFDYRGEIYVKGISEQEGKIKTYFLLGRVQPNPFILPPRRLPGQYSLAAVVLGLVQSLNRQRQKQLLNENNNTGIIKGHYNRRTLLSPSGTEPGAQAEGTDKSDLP
Sequence of Adenylate cyclase type 1 (Q08828 whole entry): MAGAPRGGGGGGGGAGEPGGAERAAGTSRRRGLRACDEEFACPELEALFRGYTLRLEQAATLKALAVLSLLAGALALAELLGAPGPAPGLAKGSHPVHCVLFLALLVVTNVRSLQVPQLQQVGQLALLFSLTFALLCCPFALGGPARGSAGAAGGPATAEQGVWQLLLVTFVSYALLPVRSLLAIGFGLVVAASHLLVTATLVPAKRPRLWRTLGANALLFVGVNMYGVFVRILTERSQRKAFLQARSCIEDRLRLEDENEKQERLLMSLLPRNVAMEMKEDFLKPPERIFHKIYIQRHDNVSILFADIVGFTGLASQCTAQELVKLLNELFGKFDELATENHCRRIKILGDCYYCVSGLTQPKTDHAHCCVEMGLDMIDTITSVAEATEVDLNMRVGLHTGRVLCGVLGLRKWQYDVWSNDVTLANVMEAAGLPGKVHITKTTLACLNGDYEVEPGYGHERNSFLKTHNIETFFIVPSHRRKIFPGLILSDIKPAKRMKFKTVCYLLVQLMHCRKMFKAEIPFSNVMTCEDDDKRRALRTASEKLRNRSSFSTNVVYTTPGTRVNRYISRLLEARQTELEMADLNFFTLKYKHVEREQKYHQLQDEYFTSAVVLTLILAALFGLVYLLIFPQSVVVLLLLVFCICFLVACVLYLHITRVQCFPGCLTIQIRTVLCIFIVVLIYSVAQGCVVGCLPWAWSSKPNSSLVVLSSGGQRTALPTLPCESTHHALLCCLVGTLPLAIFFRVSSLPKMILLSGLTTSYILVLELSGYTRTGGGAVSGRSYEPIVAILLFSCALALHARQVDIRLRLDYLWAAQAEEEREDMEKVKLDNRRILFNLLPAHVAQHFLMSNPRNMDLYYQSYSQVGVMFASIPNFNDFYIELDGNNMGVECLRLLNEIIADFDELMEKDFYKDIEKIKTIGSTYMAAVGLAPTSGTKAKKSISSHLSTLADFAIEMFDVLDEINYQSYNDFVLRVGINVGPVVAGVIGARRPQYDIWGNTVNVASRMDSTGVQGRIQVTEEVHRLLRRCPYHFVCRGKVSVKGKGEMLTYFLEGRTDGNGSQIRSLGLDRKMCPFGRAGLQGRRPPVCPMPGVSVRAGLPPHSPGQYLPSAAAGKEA
Sequence of Insulin receptor (Homo sapiens) (P06213 28-758 limits assumed): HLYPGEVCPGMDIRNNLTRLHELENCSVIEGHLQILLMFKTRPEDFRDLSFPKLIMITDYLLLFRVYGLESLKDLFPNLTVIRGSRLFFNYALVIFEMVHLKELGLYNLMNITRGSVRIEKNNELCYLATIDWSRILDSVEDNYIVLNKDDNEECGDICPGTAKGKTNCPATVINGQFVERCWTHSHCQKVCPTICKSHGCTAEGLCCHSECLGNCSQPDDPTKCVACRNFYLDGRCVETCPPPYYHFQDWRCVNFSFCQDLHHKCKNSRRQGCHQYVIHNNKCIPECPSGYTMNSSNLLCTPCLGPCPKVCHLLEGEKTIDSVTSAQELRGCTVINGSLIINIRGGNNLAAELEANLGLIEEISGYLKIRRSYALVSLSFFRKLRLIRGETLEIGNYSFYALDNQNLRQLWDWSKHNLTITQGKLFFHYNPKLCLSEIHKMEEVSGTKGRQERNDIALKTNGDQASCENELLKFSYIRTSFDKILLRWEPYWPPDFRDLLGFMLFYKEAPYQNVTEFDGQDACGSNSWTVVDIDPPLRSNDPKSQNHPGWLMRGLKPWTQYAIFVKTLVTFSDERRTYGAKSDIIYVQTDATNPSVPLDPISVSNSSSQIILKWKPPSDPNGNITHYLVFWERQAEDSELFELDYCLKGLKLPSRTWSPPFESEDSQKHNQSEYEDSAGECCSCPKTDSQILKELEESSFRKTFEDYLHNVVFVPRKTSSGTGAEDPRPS
Sequence of Insulin receptor (Homo sapiens) (P06213 763-1382 limits assumed): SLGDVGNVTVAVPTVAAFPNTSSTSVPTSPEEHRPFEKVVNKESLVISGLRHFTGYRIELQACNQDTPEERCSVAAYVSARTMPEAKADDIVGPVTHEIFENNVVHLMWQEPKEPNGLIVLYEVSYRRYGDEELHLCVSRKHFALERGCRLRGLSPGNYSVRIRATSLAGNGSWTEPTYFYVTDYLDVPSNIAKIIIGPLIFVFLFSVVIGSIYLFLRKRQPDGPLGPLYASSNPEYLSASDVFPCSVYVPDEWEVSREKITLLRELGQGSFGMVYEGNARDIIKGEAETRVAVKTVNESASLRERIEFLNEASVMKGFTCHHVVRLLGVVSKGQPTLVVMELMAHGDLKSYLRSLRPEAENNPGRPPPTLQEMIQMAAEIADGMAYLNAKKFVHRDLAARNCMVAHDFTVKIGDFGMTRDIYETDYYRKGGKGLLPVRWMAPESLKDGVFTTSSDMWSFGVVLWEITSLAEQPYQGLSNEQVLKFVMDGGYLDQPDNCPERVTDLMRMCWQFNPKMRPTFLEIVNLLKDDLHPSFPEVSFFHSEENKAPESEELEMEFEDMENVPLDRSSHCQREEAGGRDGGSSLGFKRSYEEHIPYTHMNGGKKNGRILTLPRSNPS
Description for Adenylate cyclase type 1: Inhibition of Ca2+/ CAM stimulated human AC1 activity expressed in AC3 and AC6-knockout HEK293 cells assessed as A23187 stimulated cAMP accumulation incubated for 30 mins followed by A2318 stimulation in presence of IBMX for 1 hr by HTRF assay

On to `CCc1cc(=O)[nH]c(-n2nc(C)cc2NC(=O)c2ccccc2)n1`, for which the IC50 on Adenylate cyclase type 1 was 2.8 µM; at Adenylate cyclase type 8 [1], 35.9 µM. In addition, the inhibition at Adenylate cyclase type 8 [2] was determined as 0%.
In the same order, the values of `CCc1ccc(C(=O)Nc2cc(C)nn2-c2nc(CC)cc(=O)[nH]2)cc1` are 0.39 µM, 6.6 µM and 19%.
In the same order, the values of `CCc1cc(=O)[nH]c(-n2nc(C)cc2NC(=O)c2cc(C)cc(C)c2)n1` are 0.52 µM, 1.7 µM and 27%.
For `CCc1cccc(C(=O)Nc2cc(C)nn2-c2nc(CC)cc(=O)[nH]2)c1`, the IC50 against Adenylate cyclase type 1 was 0.44 µM; on Adenylate cyclase type 8 [1] it was 3.5 µM. The inhibition in data set [3] turned out to be 28%; in data set [6], 57%; at Adenylate cyclase type 8 [2], 12%; in data set [7] (filed as antagonist), 49%. Besides, the inhibition entry at Adenylate cyclase type 8 [4] is “Active”. The solubility thermodynamic in data set [5] worked out at 10.8 µM (≈ 3.8 µg/mL). Besides, the Activity entry in the data set on HEK293 is “Non-Toxic”.
Regarding `CCOc1cccc(C(=O)Nc2cc(C)nn2-c2nc(CC)cc(=O)[nH]2)c1`, the results for the IC50 on Adenylate cyclase type 1 and at Adenylate cyclase type 8 [1] were 0.9 µM and 4.4 µM, respectively. For the same compound, at Adenylate cyclase type 8 [2], the inhibition turned out to be 11%.
On the same counts, the results for `CCc1cc(=O)[nH]c(-n2nc(C)cc2NC(=O)c2cccc(SC)c2)n1` are 0.63 µM, 1.3 µM and 52%.
On the same counts, the results for `CCc1cc(=O)[nH]c(-n2nc(C)cc2NC(=O)c2cccc(C(F)(F)F)c2)n1` are 0.68 µM, 1.3 µM and 41%.
For the compound `CCc1cc(=O)[nH]c(-n2nc(C)cc2NC(=O)c2cccc(C(C)(C)C)c2)n1`, the IC50 against Adenylate cyclase type 1 came to 0.88 µM; at Adenylate cyclase type 8 [1], 0.38 µM. Further, at Adenylate cyclase type 8 [2], the inhibition was determined as 25%.
In the same order, the values of `CCc1cc(=O)[nH]c(-n2nc(C)cc2NC(=O)c2ccco2)n1` are 6.7 µM, 15.7 µM and 20%.
In the same order, the values of `CCc1cc(=O)[nH]c(-n2nc(C)cc2NC(=O)c2cccc(C)c2F)n1` are 0.57 µM, above 60 µM and 9%.
`CCc1cc(=O)[nH]c(-n2nc(C)cc2NC(=O)Cc2cccc(C)c2)n1`: the values for the IC50 against Adenylate cyclase type 1 and on Adenylate cyclase type 8 [1] were 9.2 µM and above 60 µM, respectively. The inhibition on Adenylate cyclase type 8 [2] was determined as 59%.
Turning to `CCc1cc(=O)[nH]c(-n2nc(C)cc2NC(=O)c2ccccc2F)n1`, the IC50 on Adenylate cyclase type 1 was found to be 1.4 µM; on Adenylate cyclase type 8 [1], 1.9 µM. Also, the inhibition entry on Adenylate cyclase type 8 [4] was “Active”. The inhibition on Adenylate cyclase type 8 [2] came out at 46%. In data set [7], the Ki worked out at 1.3 µM. Moreover, in the data set with HEK293, the Activity entry was “Non-Toxic”.
Turning to `CCc1cc(=O)[nH]c(-n2nc(C)cc2NC(=O)c2ccc(Cl)cc2)n1`, the figures for the IC50 on Adenylate cyclase type 1 and on Adenylate cyclase type 8 [1] were 0.36 µM and 2.5 µM, respectively. Moreover, on Adenylate cyclase type 8 [2], the inhibition amounted to 53%.
For the compound `CCc1cc(=O)[nH]c(-n2nc(C)cc2NC(=O)c2ccc(O)cc2)n1`, the IC50 against Adenylate cyclase type 1 and on Adenylate cyclase type 8 [1] was above 60 µM each time.
Take `CCc1cc(=O)[nH]c(-n2nc(C)cc2NC(=O)c2cccc(OC)c2)n1`: the IC50 was found to be 1.42 µM against Adenylate cyclase type 1 and 9.6 µM at Adenylate cyclase type 8 [1]. For the same compound, the inhibition at Adenylate cyclase type 8 [2] came to 5%.
In the case of `CCc1cc(=O)[nH]c(-n2nc(C)cc2NC(=O)c2cccc(F)c2)n1`, the IC50 against Adenylate cyclase type 1 was 1.4 µM; on Adenylate cyclase type 8 [1] it was 1.6 µM. The inhibition on Adenylate cyclase type 8 [2] turned out to be 55%.
In the case of `CCc1cc(=O)[nH]c(-n2nc(C)cc2NC(=O)c2ccc(C)c(C)c2)n1`, the results for the half-maximal inhibitory concentration (IC50) on Adenylate cyclase type 1 and on Adenylate cyclase type 8 [1] were 0.29 µM and 0.71 µM, respectively. Further, in data set [8], the “inhibition (INH)” value turned out to be 11%. Further, the inhibition result on Adenylate cyclase type 8 [4] is “Active”. For the same compound, the solubility thermodynamic in data set [5] stood at 7.6 µM (≈ 2.67 µg/mL). Moreover, the values for the inhibition (in [6]; at Adenylate cyclase type 8 [2]; in data set [7]) were 4%, 27% and 32%, respectively. Further, the Activity result in the data set on HEK293 is “Non-Toxic”.
In the case of `CCc1cc(=O)[nH]c(-n2nc(C)cc2NC(=O)c2ccc(-c3ccccc3)cc2)n1`, the IC50 against Adenylate cyclase type 1 turned out to be 0.77 µM; on Adenylate cyclase type 8 [1] it was 0.7 µM. Besides, the inhibition on Adenylate cyclase type 8 [2] amounted to 32%.
For the compound `CCc1cc(=O)[nH]c(-n2nc(C)cc2NC(=O)Cc2ccccc2F)n1`, the IC50 turned out to be 16.3 µM on Adenylate cyclase type 1 and 3.4 µM at Adenylate cyclase type 8 [1].
For the compound `CCc1cc(=O)[nH]c(-n2nc(C)cc2NC(=O)c2ccc(C)cc2)n1`, the IC50 against Adenylate cyclase type 1 was 0.67 µM; on Adenylate cyclase type 8 [1], above 60 µM. In addition, at Adenylate cyclase type 8 [2], the inhibition was 27%.
In the same order, the values of `CCc1cc(=O)[nH]c(-n2nc(C)cc2NC(=O)c2cccc(C(C)C)c2)n1` are 0.36 µM, 2.6 µM and 28%.
For `CCc1cc(=O)[nH]c(-n2nc(C)cc2NC(=O)c2cccc(C)c2)n1`, the IC50 against Adenylate cyclase type 1 turned out to be 0.41 µM; on Adenylate cyclase type 8 [1], 2.7 µM. Further, the inhibition entry on Adenylate cyclase type 8 [4] was “Active”. The solubility thermodynamic in [5] turned out to be 19.5 µM (≈ 6.58 µg/mL). The inhibition at Adenylate cyclase type 8 [2] stood at 27%. The Ki in data set [7] amounted to 0.9 µM. In addition, the Activity result in the data set with HEK293 was “Non-Toxic”.
With `CCc1cc(=O)[nH]c(-n2nc(C)cc2NC(=O)c2ccc(F)cc2)n1`, the IC50 on Adenylate cyclase type 1 was 0.79 µM; on Adenylate cyclase type 8 [1], 0.78 µM. Moreover, the inhibition at Adenylate cyclase type 8 [2] turned out to be 52%.
In the same order, the values of `CCc1cc(=O)[nH]c(-n2nc(C)cc2NC(=O)c2cccc(Cl)c2)n1` are 0.47 µM, 1 µM and 48%.
Turning to `CCc1cc(=O)[nH]c(-n2nc(C)cc2NC(=O)c2ccc(OCOC)cc2)n1`, the results for the IC50 at Adenylate cyclase type 1 and on Adenylate cyclase type 8 [1] were 4.3 µM and above 30 µM, respectively.
Take `CCc1cc(=O)[nH]c(-n2nc(C)cc2NC(=O)c2cccc(-c3ccccc3)c2)n1`: the values for the IC50 against Adenylate cyclase type 1 and at Adenylate cyclase type 8 [1] were 0.25 µM and 0.57 µM, respectively. In addition, at Adenylate cyclase type 8 [2], the inhibition came to 37%.
In the same order, the values of `CCc1cc(=O)[nH]c(-n2nc(C)cc2NC(=O)c2ccc(N(C)C)cc2)n1` are 2.3 µM, 1 µM and 39%.
On to `CCc1cc(=O)[nH]c(-n2nc(C)cc2NC(C)=O)n1`, for which the IC50 at Adenylate cyclase type 1 was above 30 µM; on Adenylate cyclase type 8 [1] it was 10.6 µM.
In the case of `CCc1cc(=O)[nH]c(-n2nc(C)cc2NC(=O)c2ccccn2)n1`, the IC50 at Adenylate cyclase type 8 [1] was 2.8 µM. For the same compound, the inhibition on Adenylate cyclase type 8 [2] amounted to 46%.
On the same counts, the results for `CCc1cc(=O)[nH]c(-n2nc(C)cc2NC(=O)c2ccc(OC)cc2)n1` are above 60 µM and 0%.
As to `CCc1cc(=O)[nH]c(-n2nc(C)cc2NC(=O)c2ccccc2CC)n1`, the IC50 was 3.1 µM on Adenylate cyclase type 1 and above 60 µM on Adenylate cyclase type 8 [1]. Also, the inhibition at Adenylate cyclase type 8 [2] is 21%.
Regarding `CN1CC[C@]23c4c5ccc(O)c4O[C@H]2[C@@H](O)C=C[C@H]3[C@H]1C5`, in the data set on Mus musculus, the result was Active.
Take `CCc1cc(=O)[nH]c(-n2nc(C)cc2NC(=O)c2cccc(Br)c2)n1`: the IC50 worked out at 0.61 µM at Adenylate cyclase type 1 and 2.1 µM on Adenylate cyclase type 8 [1]. Further, the inhibition at Adenylate cyclase type 8 [2] is 15%.
In the same order, the values of `CCc1cc(=O)[nH]c(-n2nc(C)cc2NC(=O)c2ccccc2C)n1` are 2.2 µM, 15.7 µM and 11%.
Regarding `CCc1cc(=O)[nH]c(-n2nc(C)cc2NC(=O)c2ccc(C(C)(C)C)cc2)n1`, the IC50 was found to be 0.97 µM against Adenylate cyclase type 1 and 1.2 µM at Adenylate cyclase type 8 [1]. For the same compound, the inhibition on Adenylate cyclase type 8 [2] came to 35%.
For the compound `CCc1cc(=O)[nH]c(-n2nc(C)cc2NC(=O)c2cccc(C3CC3)c2)n1`, the IC50 against Adenylate cyclase type 1 was 0.81 µM; on Adenylate cyclase type 8 [1], 1.9 µM. In addition, the inhibition on Adenylate cyclase type 8 [2] is 17%.

(Values after ChEMBL document CHEMBL5154791, “Optimization of a Pyrimidinone Series for Selective Inhibition of Ca2+/Calmodulin-Stimulated Adenylyl Cyclase 1 Activity for the Treatment of Chronic Pain” (J Med Chem, 2022).)
